From US6358984B1, “2,4-dioxopyrrolidine and 2,4-dioxotetrahydrofuran derivatives and medicines containing the same as the active ingredient” (Lead Chemical Co., Ltd., priority 1996, dated 2002)
Read-outs that look alike come from different tables or passages of the source.

How the values were obtained:
aortae of guinea pigs = test: Inhibition of vascular contraction caused by angiotensin II using pieces of the aortae of guinea pigs; format: cell-based; details: Cavia porcellus; guinea pig chest aorta, contraction induced by angiotensin II; read-out: Vascular contraction inhibition effect IC50
Method: Male Hartly guinea pigs (350 to 400 g) were contused on the head and sacrificed by allowing their blood to discharge from the arteria carotis communis. Immediately after death, the chest aorta was removed. A spiral sample of width 2 to 3 mm and length 20 to 25 mm was cut from the aorta, and was suspended in 4.5 ml of Krebs-Henseleit (K-H) solution (120 mM NaCl, 4.7 mM KCl, […], 1.2 mM KH2PO4, 2.5 mM CaCl2, 25 mM NaHCO3, and 10 mM glucose) in a Magnus vessel. The K-H solution in the Magnus vessel was maintained at 37° C., and a mixture gas of 95% O2 and 5% CO2 was continuously bubbled through the solution. First, 1 g of initial tension was applied to the sample, which was then left to stand rest for about 30 minutes, and 45 μl of 4M KCl solution was added to the solution to induce contraction. After contraction had stabilized, a washing operation was performed to replace the K-H solution. Then, after the sample was left to stand for 30 minutes, 45 μl of solvent DMSO was added to incubate the sample for 15 minutes, and 45 μl of angiotensin II solution (3×10^−8M) was added to induce contraction. This operation was repeated three times and 100% contraction was used as the average. Subsequently, the sample was stabilized by washing. Then, a 45 μl sample of each test compound prepared for each concentration (3×10^−5M to 10^−7M) using DMSO as a solvent was used to observe the inhibition effect of angiotensin II on vascular contraction by performing the same operation as described above. The contraction reaction was recorded on a recorder (RTA-1100, Japan Photoelectronics) via an equi-scale pressure transducer (TB-651T, Japan Photoelectronics). The angiotensin II inhibition effects of the test compounds were evaluated using the IC50 value.

angiotensin II receptor = target: T1, angiotensin II receptor (Oryctolagus cuniculus, UniProt P34976); test: Binding inhibition of 3H labeled angiotensin II to angiotensin II receptor membrane fraction; parameters: species or system rabbit; details: for IC50: rabbit adrenal gland membrane, 3H labeled angiotensin II 10^-9M, read-out: Receptor binding inhibition effect IC50
T1 construct: fraction of angiotensin II receptor membrane ([…]) prepared from rabbit adrenal gland; from tissue; host or cells: rabbit adrenal gland membrane fraction
T1 sequence (P34976 1-359): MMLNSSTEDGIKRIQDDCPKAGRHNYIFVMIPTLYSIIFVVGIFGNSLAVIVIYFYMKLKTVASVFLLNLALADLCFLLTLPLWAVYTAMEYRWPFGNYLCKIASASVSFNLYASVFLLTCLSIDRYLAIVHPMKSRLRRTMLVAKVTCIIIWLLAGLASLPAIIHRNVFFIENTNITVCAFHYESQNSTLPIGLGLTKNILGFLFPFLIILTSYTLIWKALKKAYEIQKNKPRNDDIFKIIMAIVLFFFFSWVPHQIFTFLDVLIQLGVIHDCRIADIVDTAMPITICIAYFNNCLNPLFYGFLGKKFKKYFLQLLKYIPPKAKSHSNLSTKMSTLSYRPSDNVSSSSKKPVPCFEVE
Method: The method of Cox et. al (Biochemical Pharmacology 33, 4057-4064 (1984) was modified to conduct angiotensin II receptor binding inhibition experiments. The present compounds (10^−5M to 10^−9M) and ^3H labeled angiotensin II (10^−9M) were added to a fraction of angiotensin II receptor membrane ([…]) prepared from rabbit adrenal gland and were allowed to react in a 20 mM Tris HCl buffer (pH: 7.0) containing 120 mM NaCl, 5 mM EDTA, 0.1 mM PMSF, and 0.2% BSA at 30° C. for 20 minutes so that the final volume was 540 μl. Then, the reaction mixture was quickly passed through a filter (whatman GF/B), and the filter was then rinsed three times in 4 ml of the buffer cooled in ice. Then, the radioactivity of receptor binding ^3H labeled angiotensin II captured on the filter was measured using a liquid scintillation counter. The angiotensin II receptor binding inhibition activity of the present compounds was evaluated based on the concentration (IC 50) required to replace 50% of the total amount of specifically binding ^3H labeled angiotensin II.

[1] = tested on: hypertension caused by angiotensin II; test: Inhibition effect in the hypertension caused by angiotensin II using rats; format: in vivo, rat; details: Rattus norvegicus, iv, i. v., male SD rats, angiotensin II 100 ng/kg
Method: Male SD rats (age; 11 weeks; 310 to 330 g) Were used, and indwelling cannula were placed in the femoral aorta and the vena cava, under anesthesia with inactin. The arterial cannula was connected to a pressure transducer to record the blood pressure via a carrier amplifier (AP-601G Japan Photoelectronics) using a polygraph system (RM-6000 Japan Photoelectronics). Prior to tests using the test compounds, 100 ng/kg-equivalent angiotensin II (50 μl of serum solution from the rat) was administered using a regular-pulse cannula to check the hypertensive action. Then, 30 minutes later, a 1 mg/kg-equivalent test compound (50 μl of serum solution from the rat) was administered using the regular-pulse cannula, and similar administration of angiotensin II was performed 5 and 60 minutes later to check the corresponding hypertensive action. The hypertensive effect resulting from the administration of only angiotensin II was taken as a reference value of 100% to determine the antihypertensive rates of the test compounds.

male ICR mice = test: Acute toxicity tests using male ICR mice; format: in vivo; details: 250, 500 and 1,000 mg/kg orally, dissected after 21 days
Method: Acute toxicity tests of the compounds 1d and 2d described in table 1 were carried out. […] As a result, in each administration group, no mouse died whichever compound had been administered.

[2] = 5 min, 5 minutes after administration, read-out: Inhibition effect in the hypertension by angiotensin II, 5 minutes after administration
[3] = 1 h, 60 minutes after administration, read-out: Inhibition effect in the hypertension by angiotensin II, 60 minutes after administration

SMILES | IC50 (aortae of guinea pigs) | melting point | IC50 (angiotensin II receptor) | inhibition in vivo at 1 mg/kg [1, 2] | inhibition in vivo at 1 mg/kg [1, 3] | Findings on dissection at the end of the observation period (male ICR mice) | Angiotensin II receptor antagonism (in words) (angiotensin II receptor)
CCCCc1nc(CCc2ccccc2)nn1Cc1ccc(-c2ccccc2/C=C2\NC(=O)CC2=O)cc1 [Compound 1f, 5-Butyl-3-(2-phenylethyl)-1-[2′-[(2,4-dioxopyrrolidine-5(Z)-ylidene)methyl]biphenyl-4-yl]methyl-1H-1,2,4-triazole] | 87900 nM | 188 to 189 °C | 150 nM | 30 to 70% | 30 to 70% | – | –
CCCCc1nc(CCc2ccccc2)nn1Cc1ccc(-c2ccccc2/C=C2\OC(=O)C=C2O)cc1 [Compound 2f, 5-Butyl-3-(2-phenylethyl)-1-[2′-[(4-hydroxy-2(5H)-furanone-5(Z)-ylidene)methyl]biphenyl-4-yl]methyl-1H-1,2,4-triazole] | > 300000 nM | 184 to 185 °C | 11 nM | 30 to 70% | < 10% | – | –
CCCc1nc(CCC)n(Cc2ccc(-c3ccccc3/C=C3\OC(=O)C=C3O)cc2)n1 [Compound 2a, 3,5-Dipropyl-1-[2′-[(4-hydroxy-2(5H)-furanone-5(Z)-ylidene)methyl]biphenyl-4-yl]methyl-1H-1,2,4-triazole] | 16900 nM | 160 to 161 °C | 110 nM | 30 to 70% | < 10% | – | –
CCCCc1nc(C2CC2)nn1Cc1ccc(-c2ccccc2/C=C2\OC(=O)C=C2O)cc1 [Compound 2c, 5-Butyl-3-cyclopropyl-1-[2′-[(4-hydroxy-2(5H)-furanone-5(Z)-ylidene)methyl]biphenyl-4-yl]methyl-1H-1,2,4-triazole] | > 300000 nM | 168 to 170 °C | 150 nM | 10 to 30% | < 10% | – | –
CCCCc1nc(-c2ccccc2)nn1Cc1ccc(-c2ccccc2/C=C2\OC(=O)C=C2O)cc1 [Compound 2e, 5-Butyl-3-phenyl-1-[2′-[(4-hydroxy-2(5H)-furanone-5(Z)-ylidene)methyl]biphenyl-4-yl]methyl-1H-1,2,4-triazole] | 154000 nM | 188 to 189 °C | 180 nM | 30 to 70% | 30 to 70% | – | –
CCCCc1nc(CCCC)n(Cc2ccc(-c3ccccc3/C=C3\OC(=O)C=C3O)cc2)n1 [Compound 2d] | 4500 nM | – | 46 nM | 30 to 70% | 10 to 30% | no abnormality | distinct angiotensin II receptor antagonism
CCCCc1nc(CCCC)n(Cc2ccc(-c3ccccc3/C=C3\NC(=O)CC3=O)cc2)n1 [Compound 1d, 3,5-Dibutyl-1-[2′-[(2,4-dioxopyrrolidine-5(Z)-ylidene)methyl]biphenyl-4-yl]methyl-1H-1,2,4-triazole] | 1400 nM | – | 130 nM | ≥ 70% | 30 to 70% | no abnormality | distinct angiotensin II receptor antagonism
